Assay results: ChEMBL document CHEMBL5325418, “Studies on diketopiperazine and dipeptide analogs as opioid receptor ligands” (Eur J Med Chem, 2023)
pKi: −log10 of the molar value. The source made the active and inactive calls. No cut-off for these calls is given here. Square brackets hold non-standard residues; d marks the D form. Peptide text beside a SMILES is read from it. * marks the point of attachment. ξ: configuration not given here. ξPhe(3-OMe) = COc1cccc(CC(N)C(=O)O)c1; Nphe = O=C(O)CNCc1ccccc1; Boc = CC(C)(C)OC(=O)*

Experiments:
[1] = biological target: Kappa-type opioid receptor (Homo sapiens, UniProt P41145); test: Displacement of [3H]U69593 from human KOR expressed in HEK cell membranes assessed as inhibition constant incubated for 60 mins by microbeta 2 scintillation counting method; set-up: species or system Cell membrane
Kappa-type opioid receptor, sequence (P41145 whole entry): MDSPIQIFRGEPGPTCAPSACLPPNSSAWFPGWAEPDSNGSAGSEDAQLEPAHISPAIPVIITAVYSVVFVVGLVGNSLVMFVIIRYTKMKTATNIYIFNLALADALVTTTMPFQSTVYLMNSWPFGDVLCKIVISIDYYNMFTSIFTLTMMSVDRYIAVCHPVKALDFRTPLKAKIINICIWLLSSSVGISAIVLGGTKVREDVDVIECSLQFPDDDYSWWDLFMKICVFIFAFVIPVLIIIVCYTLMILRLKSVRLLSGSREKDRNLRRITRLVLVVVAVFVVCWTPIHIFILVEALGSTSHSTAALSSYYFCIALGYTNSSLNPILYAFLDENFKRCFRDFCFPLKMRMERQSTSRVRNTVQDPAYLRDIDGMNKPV

[2] = Plasma protein binding in mouse assessed as bound fraction at 1 uM by LC-MS/MS analysis; type: ADME, cell-free
[3] = biological target: Delta-type opioid receptor (Homo sapiens, UniProt P41143); test: Displacement of [3H]DADLE from human DOR expressed in CHO cell membranes assessed as inhibition constant incubated for 60 mins by microbeta 2 scintillation counting method; set-up: species or system Cell membrane
Delta-type opioid receptor, sequence (P41143 whole entry): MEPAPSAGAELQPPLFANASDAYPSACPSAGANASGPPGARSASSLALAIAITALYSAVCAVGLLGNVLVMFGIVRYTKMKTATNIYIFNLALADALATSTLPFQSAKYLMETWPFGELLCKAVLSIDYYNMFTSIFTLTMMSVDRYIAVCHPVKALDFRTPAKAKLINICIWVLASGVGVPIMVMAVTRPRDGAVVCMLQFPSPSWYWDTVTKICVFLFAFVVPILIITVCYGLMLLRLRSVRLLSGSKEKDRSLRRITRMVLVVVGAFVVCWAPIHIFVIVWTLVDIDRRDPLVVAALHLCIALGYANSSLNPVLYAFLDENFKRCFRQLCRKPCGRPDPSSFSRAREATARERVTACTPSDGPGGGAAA

Rattus norvegicus [4] = test: Effect on emotional-affective response in spinal nerve ligation neuropathic pain rat model assessed as reduction in ultrasonic vocalizations at 3 mg/kg, ip measured at 1 hr by preamplifier based analysis; type: functional, organism-based
Homo sapiens [5] = species on record: Homo sapiens; test: Selectivity ratio of Ki for displacement of [3H]DADLE from human DOR expressed in CHO cell membranes to Ki for displacement of [3H]U69593 from human KOR expressed in HEK cell membranes
[6] = Metabolic stability in CD-1 mouse plasma assessed as half life at 100 uM measured upto 24 hrs by LC-MS/MS analysis; type: ADME, cell-free
[7] = Metabolic stability in human plasma assessed as half life at 100 uM measured upto 24 hrs by LC-MS/MS analysis; type: ADME, cell-free
Rattus norvegicus [8] = test: Antiallodynic activity against spinal nerve ligation neuropathic pain rat model assessed as reduction in mechanical hypersensitivity at 3 mg/kg, ip measured at 1 hr by von frey test; type: functional, organism-based
Mu-type opioid receptor = Mu-type opioid receptor (Homo sapiens, UniProt P35372); test: Displacement of [3H]DAMGO from human MOR expressed in CHO cell membranes assessed as inhibition constant incubated for 60 mins by microbeta 2 scintillation counting method; set-up: species or system Cell membrane
Mu-type opioid receptor, sequence (P35372 whole entry): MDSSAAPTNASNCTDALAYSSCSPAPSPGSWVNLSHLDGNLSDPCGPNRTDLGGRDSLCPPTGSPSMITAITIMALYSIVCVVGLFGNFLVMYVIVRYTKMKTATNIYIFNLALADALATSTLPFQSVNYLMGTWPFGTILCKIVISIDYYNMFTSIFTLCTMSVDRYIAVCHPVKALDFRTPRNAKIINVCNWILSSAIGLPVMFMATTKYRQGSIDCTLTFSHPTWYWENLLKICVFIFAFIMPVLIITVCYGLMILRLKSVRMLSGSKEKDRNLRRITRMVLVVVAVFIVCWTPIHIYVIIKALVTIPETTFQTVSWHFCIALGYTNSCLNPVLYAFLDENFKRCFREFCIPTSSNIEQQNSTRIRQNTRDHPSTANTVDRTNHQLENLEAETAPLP

BEND3 = test: Apparent permeability coefficient of the compound across blood brain barrier in mouse BEND3 cells at 10 ug/ml measured upto 120 mins by LC-MS/MS analysis; type: functional, cell-based; conditions: dose 10.0 µg/ml
[9] = Metabolic stability in Sprague-Dawley rat plasma assessed as half life at 100 uM measured upto 24 hrs by LC-MS/MS analysis; type: ADME, cell-free
[10] = Metabolic stability in Beagle dog plasma assessed as half life at 100 uM measured upto 24 hrs by LC-MS/MS analysis; type: ADME, cell-free, Canis lupus familiaris; conditions: Beagle
[11] = Plasma protein binding in rat assessed as bound fraction at 1 uM by LC-MS/MS analysis; type: ADME, cell-free
[12] = In vivo inhibition of U50488-induced activation of KOR in C57BL/6 mouse assessed as reduction of occupancy on cold plate at 1 mg/kg, ip pre-treated with U50488 followed compound addition measured after 1 hr by TPPT assay (reference value: 67.28 +/- 10.8% ); type: functional
[13] = Metabolic stability in Sprague-Dawley rat liver microsomes assessed as intrinsic clearance at 100 uM measured upto 24 hrs in presence of NADPH by LC-MS/MS analysis; type: ADME, Microsome
[14] = Plasma protein binding in dog assessed as bound fraction at 1 uM by LC-MS/MS analysis; type: ADME, cell-free, Canis lupus familiaris
[15] = Plasma protein binding in human assessed as bound fraction at 1 uM by LC-MS/MS analysis; type: ADME, cell-free
Rattus norvegicus [16] = test: Effect on emotional-affective response in spinal nerve ligation neuropathic pain rat model assessed as reduction in audible vocalizations at 3 mg/kg, ip measured at 1 hr by preamplifier based analysis; type: functional, organism-based
Homo sapiens [17] = species on record: Homo sapiens; test: Selectivity ratio of Ki for displacement of [3H]DAMGO from human MOR expressed in CHO cell membranes to Ki for displacement of [3H]U69593 from human KOR expressed in HEK cell membranes

COc1cccc(CC2NC(=O)CN(Cc3ccccc3)C2=O)c1I (stereo unspecified)
pKi [1]: 6.03
PPB [2]: 85.15%
pKi [3]: < 5.00
Activity (Rattus norvegicus [4]): Active
Ratio Ki (Homo sapiens [5]): > 11
half-life at 100 µM [6]: > 24 h
half-life at 100 µM [7]: > 24 h
Activity (Rattus norvegicus [8]): Active
pKi (Mu-type opioid receptor): < 5.00
Pe (BEND3): 5.07 10^-3cm/min
half-life at 100 µM [9]: > 24 h
half-life at 100 µM [10]: > 24 h
PPB [11]: 91.24%
inhibition in vivo at 1 mg/kg [12]: 10.3%
Intrinsic clearance [13]: 381.8 µL/min/mg
PPB [14]: 86.15%
PPB [15]: 91.42%
Activity (Rattus norvegicus [16]): Active
Ratio Ki (Homo sapiens [17]): > 11

COc1cccc(CC2NC(=O)CN(CCc3ccccc3)C2=O)c1I (stereo unspecified)
pKi [1]: 5.29
pKi [3]: < 5.00
Ratio Ki (Homo sapiens [5]): > 1.9
pKi (Mu-type opioid receptor): < 5.00
Ratio Ki (Homo sapiens [17]): > 1.9

COC(=O)C(Cc1cccc(OC)c1I)NC(=O)CN(Cc1ccccc1)C(=O)OC(C)(C)C (stereo unspecified)
pKi [1]: < 5.00
pKi [3]: < 5.00
pKi (Mu-type opioid receptor): < 5.00

COC(=O)C(Cc1cccc(OC)c1)NC(=O)CN(Cc1ccccc1)C(=O)OC(C)(C)C (stereo unspecified) (Boc-[Nphe]-[ξPhe(3-OMe)]-OMe)
pKi [1]: < 5.00
pKi [3]: < 5.00
pKi (Mu-type opioid receptor): < 5.00

COC(=O)C(Cc1cccc(OC)c1)NC(=O)CNCc1ccccc1 (stereo unspecified) (H-[Nphe]-[ξPhe(3-OMe)]-OMe)
pKi [1]: < 5.00
pKi [3]: < 5.00
pKi (Mu-type opioid receptor): < 5.00

COc1cccc(CC2NC(=O)[C@H](CC(C)C)NC2=O)c1I (stereo partly specified)
pKi [1]: < 5.00
pKi [3]: < 5.00
pKi (Mu-type opioid receptor): < 5.00

COc1cccc(CC2NC(=O)CN(Cc3ccccc3)C2=O)c1 (stereo unspecified)
pKi [1]: < 5.00
pKi [3]: < 5.00
pKi (Mu-type opioid receptor): < 5.00

COC(=O)C(Cc1cccc(OC)c1I)NC(=O)CNC(C)c1ccccc1 (stereo unspecified)
pKi [1]: 6.12
pKi [3]: < 5.00
Ratio Ki (Homo sapiens [5]): > 13
pKi (Mu-type opioid receptor): < 5.00
Ratio Ki (Homo sapiens [17]): > 13

COc1cccc(CC2NC(=O)[C@H](Cc3ccccc3)NC2=O)c1I (stereo partly specified)
pKi [1]: < 5.00
pKi [3]: < 5.00
pKi (Mu-type opioid receptor): < 5.00

COc1cccc(CC2NC(=O)CN(C)C2=O)c1I (stereo unspecified)
pKi [1]: < 5.00
pKi [3]: < 5.00
pKi (Mu-type opioid receptor): < 5.00

COc1cccc(CC2NC(=O)CN(CCCc3ccccc3)C2=O)c1I (stereo unspecified)
pKi [1]: 5.15
pKi [3]: < 5.00
Ratio Ki (Homo sapiens [5]): > 1.4
pKi (Mu-type opioid receptor): < 5.00
Ratio Ki (Homo sapiens [17]): > 1.4

COc1cccc(CC(NC(=O)CNCc2ccccc2)C(=O)O)c1I (stereo unspecified)
pKi [1]: < 5.00
pKi [3]: < 5.00
pKi (Mu-type opioid receptor): < 5.00

COc1cc(CC2NC(=O)CN(Cc3ccccc3)C2=O)c(I)c(OC)c1 (stereo unspecified)
pKi [1]: 6.29
PPB [2]: 91.69%
pKi [3]: < 5.00
Ratio Ki (Homo sapiens [5]): > 20
half-life at 100 µM [6]: > 24 h
half-life at 100 µM [7]: > 24 h
pKi (Mu-type opioid receptor): < 5.00
Pe (BEND3): 9.68 10^-3cm/min
half-life at 100 µM [9]: > 24 h
half-life at 100 µM [10]: > 24 h
PPB [11]: 93.99%
Intrinsic clearance [13]: 390.5 µL/min/mg
PPB [14]: 89.68%
PPB [15]: 95.95%
Ratio Ki (Homo sapiens [17]): > 20

COc1cccc(CC2NC(=O)CCN(Cc3ccccc3)C2=O)c1I (stereo unspecified)
pKi [1]: < 5.00
pKi [3]: < 5.00
pKi (Mu-type opioid receptor): < 5.00

COC(=O)C(Cc1cc(OC)cc(OC)c1I)NC(=O)CNCc1ccccc1 (stereo unspecified)
pKi [1]: < 5.00
pKi [3]: < 5.00
pKi (Mu-type opioid receptor): < 5.00

COc1cccc(CC2NC(=O)CN(Cc3cccnc3)C2=O)c1I (stereo unspecified)
pKi [1]: < 5.00
pKi [3]: < 5.00
pKi (Mu-type opioid receptor): < 5.00

O=C1CN(Cc2ccccc2)C(=O)C(Cc2cccc(O)c2I)N1 (stereo unspecified)
pKi [1]: < 5.00
pKi [3]: < 5.00
pKi (Mu-type opioid receptor): < 5.00

NCC1(CC(=O)O)CCCCC1
Activity (Rattus norvegicus [4]): Active
Activity (Rattus norvegicus [16]): Active

COC(=O)C(Cc1cccc(OC)c1I)NC(=O)CN(Cc1ccccc1)C(C)=O (stereo unspecified)
pKi [1]: < 5.00
pKi [3]: < 5.00
pKi (Mu-type opioid receptor): < 5.00

O=C1OC2(c3ccc(O)cc3Oc3cc(O)ccc32)c2ccccc21
Pe (BEND3): 0.95 10^-3cm/min
